Assay results from the supplement of paper PMC10307832.

Assays:
Experiment in all cases: relative viability (nuclei count vs DMSO), 5 days (fraction); higher = more cells survive
[1] = compound: C1=CC2=C(C=CC(=C2)C=C3C(=O)NC(=NCC4=CC=CS4)S3)N=C1 [RO-3306] + O=C(CCCCCCC(=O)Nc1ccccc1)NO [Vorinostat] (partner 1 µM)
In short: (§1)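 Dosing by pin tool came one day after lung cancer cell lines were seeded in 1536-well plates, using either one drug or a fixed anchor-drug dose plus five library-drug doses (not always all listed) in √10 steps. After 5 days, nuclei were counted on 4× images. Relative viability is treated-well nuclei count divided by vehicle-well nuclei count, and values are medians of duplicate plates.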

[2] = compound: O=S(=O)(c1ccccc1)N(CC(F)(F)F)c1ccc(C(O)(C(F)(F)F)C(F)(F)F)cc1 + CC1(C)CCC(c2ccc(Cl)cc2)=C(CN2CCN(c3ccc(C(=O)NS(=O)(=O)c4ccc(N[C@H](CCN5CCOCC5)CSc5ccccc5)c(S(=O)(=O)C(F)(F)F)c4)cc3)CC2)C1 [Navitoclax] (partner 0.5 µM)
In short: as §1

[3] = compound: C1=CC2=C(C=CC(=C2)C=C3C(=O)NC(=NCC4=CC=CS4)S3)N=C1 [RO-3306] + Cc1nc(NC(=O)N2CCC[C@H]2C(N)=O)sc1-c1ccnc(C(C)(C)C(F)(F)F)c1 [Alpelisib] (partner 2 µM)
In short: as §1

[4] = compound: C1=CC2=C(C=CC(=C2)C=C3C(=O)NC(=NCC4=CC=CS4)S3)N=C1 [RO-3306] + C[C@@H](Oc1cc(-c2cnn(C3CCNCC3)c2)cnc1N)c1c(Cl)ccc(F)c1Cl [Crizotinib] (partner 1 µM)
In short: as §1

## NCI-H1915
[1]; first compound 0.01 µM
  relative viability: 0.577
[1]; first compound 0.03162 µM
  relative viability: 0.564
[1]; first compound 0.1 µM
  relative viability: 0.505
[1]; first compound 0.3162 µM
  relative viability: 0.49
[1]; first compound 1 µM
  relative viability: 0.505
[2]; first compound 0.8 µM
  relative viability: 0.881
[2]; first compound 2.53 µM
  relative viability: 0.81
[2]; first compound 8 µM
  relative viability: 0.786
[3]; first compound 0.01 µM
  relative viability: 1.11
[3]; first compound 0.03162 µM
  relative viability: 0.988
[3]; first compound 0.1 µM
  relative viability: 1.08
[3]; first compound 0.3162 µM
  relative viability: 1.11
[3]; first compound 1 µM
  relative viability: 1.05
[4]; first compound 0.01 µM
  relative viability: 1.07
[4]; first compound 0.03162 µM
  relative viability: 0.783
[4]; first compound 0.1 µM
  relative viability: 0.882
[4]; first compound 0.3162 µM
  relative viability: 0.903
[4]; first compound 1 µM
  relative viability: 0.876

## NCI-H1944
[1]; first compound 0.01 µM
  relative viability: 0.595
[1]; first compound 0.03162 µM
  relative viability: 0.566
[1]; first compound 0.1 µM
  relative viability: 0.588
[1]; first compound 0.3162 µM
  relative viability: 0.562
[1]; first compound 1 µM
  relative viability: 0.509
[2]; first compound 0.8 µM
  relative viability: 1.03
[2]; first compound 2.53 µM
  relative viability: 1
[2]; first compound 8 µM
  relative viability: 1.04
[3]; first compound 0.01 µM
  relative viability: 0.789
[3]; first compound 0.03162 µM
  relative viability: 0.739
[3]; first compound 0.1 µM
  relative viability: 0.816
[3]; first compound 0.3162 µM
  relative viability: 0.934
[3]; first compound 1 µM
  relative viability: 0.829
[4]; first compound 0.01 µM
  relative viability: 1.11
[4]; first compound 0.03162 µM
  relative viability: 0.98
[4]; first compound 0.1 µM
  relative viability: 1.16
[4]; first compound 0.3162 µM
  relative viability: 1.21
[4]; first compound 1 µM
  relative viability: 1.03

## NCI-H1975
[1]; first compound 0.01 µM
  relative viability: 0.608
[1]; first compound 0.03162 µM
  relative viability: 0.624
[1]; first compound 0.1 µM
  relative viability: 0.685
[1]; first compound 0.3162 µM
  relative viability: 0.701
[1]; first compound 1 µM
  relative viability: 0.69
[2]; first compound 0.8 µM
  relative viability: 1.29
[2]; first compound 2.53 µM
  relative viability: 1.11
[2]; first compound 8 µM
  relative viability: 1.12
[3]; first compound 0.01 µM
  relative viability: 0.882
[3]; first compound 0.03162 µM
  relative viability: 0.507
[3]; first compound 0.1 µM
  relative viability: 0.615
[3]; first compound 0.3162 µM
  relative viability: 0.675
[3]; first compound 1 µM
  relative viability: 0.67
[4]; first compound 0.01 µM
  relative viability: 1.18
[4]; first compound 0.03162 µM
  relative viability: 0.815
[4]; first compound 0.1 µM
  relative viability: 1.06
[4]; first compound 0.3162 µM
  relative viability: 1.04
[4]; first compound 1 µM
  relative viability: 0.997

## NCI-H1993
[1]; first compound 0.01 µM
  relative viability: 0.82
[1]; first compound 0.03162 µM
  relative viability: 0.707
[1]; first compound 0.1 µM
  relative viability: 0.751
[1]; first compound 0.3162 µM
  relative viability: 0.822
[1]; first compound 1 µM
  relative viability: 0.716
[2]; first compound 0.8 µM
  relative viability: 0.867
[2]; first compound 2.53 µM
  relative viability: 0.691
[2]; first compound 8 µM
  relative viability: 0.788
[3]; first compound 0.03162 µM
  relative viability: 0.657
[3]; first compound 0.1 µM
  relative viability: 0.712
[3]; first compound 0.3162 µM
  relative viability: 0.589
[3]; first compound 1 µM
  relative viability: 0.666
[4]; first compound 0.03162 µM
  relative viability: 0.803
[4]; first compound 0.1 µM
  relative viability: 0.895
[4]; first compound 0.3162 µM
  relative viability: 0.867
[4]; first compound 1 µM
  relative viability: 0.817

## NCI-H2009
[1]; first compound 0.01 µM
  relative viability: 0.797
[1]; first compound 0.03162 µM
  relative viability: 0.739
[1]; first compound 0.1 µM
  relative viability: 0.677
[1]; first compound 0.3162 µM
  relative viability: 0.81
[1]; first compound 1 µM
  relative viability: 0.712
[2]; first compound 0.8 µM
  relative viability: 0.965
[2]; first compound 2.53 µM
  relative viability: 1
[2]; first compound 8 µM
  relative viability: 0.938
[3]; first compound 0.01 µM
  relative viability: 1.18
[3]; first compound 0.03162 µM
  relative viability: 1.18
[3]; first compound 0.1 µM
  relative viability: 1.21
[3]; first compound 0.3162 µM
  relative viability: 1.12
[3]; first compound 1 µM
  relative viability: 1.27
[4]; first compound 0.01 µM
  relative viability: 1.05
[4]; first compound 0.03162 µM
  relative viability: 0.976
[4]; first compound 0.1 µM
  relative viability: 1.02
[4]; first compound 0.3162 µM
  relative viability: 1.07
[4]; first compound 1 µM
  relative viability: 1.04

## NCI-H2023
[1]; first compound 0.01 µM
  relative viability: 0.684
[1]; first compound 0.03162 µM
  relative viability: 0.524
[1]; first compound 0.1 µM
  relative viability: 0.651
[1]; first compound 0.3162 µM
  relative viability: 0.806
[1]; first compound 1 µM
  relative viability: 0.5
[2]; first compound 0.8 µM
  relative viability: 1.07
[2]; first compound 2.53 µM
  relative viability: 0.888
[2]; first compound 8 µM
  relative viability: 0.845
[3]; first compound 0.01 µM
  relative viability: 0.758
[3]; first compound 0.03162 µM
  relative viability: 0.448
[3]; first compound 0.1 µM
  relative viability: 0.558
[3]; first compound 0.3162 µM
  relative viability: 0.661
[3]; first compound 1 µM
  relative viability: 0.564
[4]; first compound 0.01 µM
  relative viability: 0.644
[4]; first compound 0.03162 µM
  relative viability: 0.6
[4]; first compound 0.1 µM
  relative viability: 0.612
[4]; first compound 0.3162 µM
  relative viability: 0.593
[4]; first compound 1 µM
  relative viability: 0.621

## NCI-H2085
[1]; first compound 0.01 µM
  relative viability: 0.83
[1]; first compound 0.03162 µM
  relative viability: 0.733
[1]; first compound 0.1 µM
  relative viability: 0.775
[1]; first compound 0.3162 µM
  relative viability: 0.781
[1]; first compound 1 µM
  relative viability: 0.8
[2]; first compound 0.8 µM
  relative viability: 1.14
[2]; first compound 2.53 µM
  relative viability: 1
[2]; first compound 8 µM
  relative viability: 1.03
[3]; first compound 0.01 µM
  relative viability: 1.07
[3]; first compound 0.03162 µM
  relative viability: 0.926
[3]; first compound 0.1 µM
  relative viability: 0.922
[3]; first compound 0.3162 µM
  relative viability: 0.968
[3]; first compound 1 µM
  relative viability: 0.952
[4]; first compound 0.01 µM
  relative viability: 0.677
[4]; first compound 0.03162 µM
  relative viability: 0.715
[4]; first compound 0.1 µM
  relative viability: 0.774
[4]; first compound 0.3162 µM
  relative viability: 0.775
[4]; first compound 1 µM
  relative viability: 0.791

## NCI-H2087
[1]; first compound 0.01 µM
  relative viability: 0.775
[1]; first compound 0.03162 µM
  relative viability: 0.805
[1]; first compound 0.1 µM
  relative viability: 0.756
[1]; first compound 0.3162 µM
  relative viability: 0.864
[1]; first compound 1 µM
  relative viability: 0.86
[2]; first compound 0.8 µM
  relative viability: 1.03
[2]; first compound 2.53 µM
  relative viability: 0.942
[2]; first compound 8 µM
  relative viability: 0.916
[3]; first compound 0.01 µM
  relative viability: 1.12
[3]; first compound 0.03162 µM
  relative viability: 1.2
[3]; first compound 0.1 µM
  relative viability: 1.08
[3]; first compound 0.3162 µM
  relative viability: 0.91
[3]; first compound 1 µM
  relative viability: 1.08
[4]; first compound 0.01 µM
  relative viability: 1
[4]; first compound 0.03162 µM
  relative viability: 0.902
[4]; first compound 0.1 µM
  relative viability: 1.04
[4]; first compound 0.3162 µM
  relative viability: 0.893
[4]; first compound 1 µM
  relative viability: 0.945

## NCI-H2126
[1]; first compound 0.01 µM
  relative viability: 0.747
[1]; first compound 0.03162 µM
  relative viability: 0.679
[1]; first compound 0.1 µM
  relative viability: 0.812
[1]; first compound 0.3162 µM
  relative viability: 0.879
[1]; first compound 1 µM
  relative viability: 0.733
[2]; first compound 0.8 µM
  relative viability: 0.892
[2]; first compound 2.53 µM
  relative viability: 0.824
[2]; first compound 8 µM
  relative viability: 0.877
[3]; first compound 0.01 µM
  relative viability: 0.717
[3]; first compound 0.03162 µM
  relative viability: 0.698
[3]; first compound 0.1 µM
  relative viability: 0.752
[3]; first compound 0.3162 µM
  relative viability: 0.786
[3]; first compound 1 µM
  relative viability: 0.8
[4]; first compound 0.01 µM
  relative viability: 1.08
[4]; first compound 0.03162 µM
  relative viability: 1.01
[4]; first compound 0.1 µM
  relative viability: 1.08
[4]; first compound 0.3162 µM
  relative viability: 1.06
[4]; first compound 1 µM
  relative viability: 1.04
